How the values were obtained:
[1] = system: other structurally similar kinases; settings: cited from earlier work
[2] = system: GSK-3; settings: literature radiotracers; SB-216763 in rodents and non-human primates; cited from earlier work
[3] = Determination of Log D7.4 (1-octanol/PBS shake flask, gamma counting); type: physicochemical; settings: 1-octanol / PBS buffer pH 7.4, n=7
Method: The measurement of lipophilicity was carried out using literature procedure. Purified and reformulated [^11C] labelled compound (1) (˜50 μL) was added to a separating funnel containing PBS buffer (pH 7.4) and 1-octanol (pre-saturated with PBS buffer) (˜20 mL each). The octanol layer was collected and dispensed into 8 centrifuge tubes (2 mL each) containing PBS buffer (2 mL each). The tubes were mixed by vortex for 2 min and then centrifuged for 5 min. Approximately 0.5 mL of the octanol layer and 1.0 mL of the aqueous from each centrifuge tube was then transferred to pre-weighed test tubes (16 in total). The tubes were capped and assayed using an automated gamma counter. The tubes were then uncapped and weighed to determine the total volume of the liquid in each. The log D7.4 of [^11C] labelled compound (1) was determined to be 2.14 (n=7).

[4] = system: GSK-3; assay: PET imaging in rat; type: in vivo; settings: rat (n=1), bolus i.v., at 1-2 min
[5] = system: GSK-3; assay: PET imaging in rhesus monkeys; type: in vivo; settings: for brain penetration and specific binding (in words): PET imaging in animals / non-human primate brain
Method: To determine the in vivo distribution and pharmacokinetic profile of compound (1) in higher species of nonhuman primates, compound (1) was radiolabelled with carbon-11 and the permeability of compound (1) was evaluated in the living brain using positron emission tomography. [^11C] labelled compound (1) was synthesized in 5% uncorrected radiochemical yield (relative to [^11C]CO2) by reaction of the corresponding phenolic precursor in the presence of tetrabutylammonium hydroxide in DMF with [^11C]CH3I with specific activity >2 Ci/μmol (n=15).
Bolus i.v. administration of [^11C]-labelled compound (1) in rhesus monkeys (5-7 mCi) reached a whole brain peak uptake (2 SUV) with fairly uniform brain distribution followed by a fast clearance (1 SUV at 40 min). […] Liang et al., “Discovery of [^11C]PF-367 for neuroimaging of glycogen synthase kinase 3”, J. Nucl. Med., 2015, 56(Supp. 3), 491.

Structure (SMILES): [11CH3]n1cc(C2=C(c3ccc(Cl)cc3Cl)C(=O)NC2=O)c2ccccc21 [[^11C]SB-216763]
- selectivity against other structurally similar kinases (in words) [1]: not selective
- brain uptake in vivo (in words) [2]: good brain uptake

Structure (SMILES): [11CH3]Oc1ccc(-c2ocnc2C(=O)NCCCn2cncn2)cc1Cl [compound (2), N-(3-(1H-1,2,4-Triazol-1-yl)propyl)-5-(3-chloro-4-[^11C]methoxyphenyl)oxazole-4-carboxamide]
- logD [3]: 2.14
- maximum uptake [4]: about 1 SUV
- brain penetration and specific binding (in words) ([5]; listed as 11C-isotopologue of compound (1)): high brain permeability and specificity
- brain penetration and specific binding (in words) ([5]; listed as [^11C] labelled compound (1)): confirmed brain penetration and displaceable specific binding
- whole brain peak uptake ([5]; rhesus monkeys, bolus i.v., 5-7 mCi, baseline): 2 SUV
- brain uptake at 40 min (clearance) ([5]; rhesus monkeys, bolus i.v., baseline, 40 min): 1 SUV
- peak uptake ([5]; rhesus monkeys, co-administration with unlabelled compound (1) 0.1 mg/kg): 3.5 SUV
- binding at 40 min in all brain regions ([5]; rhesus monkeys, co-administration with unlabelled compound (1) 0.1 mg/kg, 40 min): 0.3 SUV
